ChEMBL document CHEMBL5604062, “ASAP - ZIKV NS2B-NS3 protease fluorescence dose response” (2024)
Values joined by “and” are separate entries in the source; they are usually repeats but may differ in a detail not shown here. Equal entries are not always repeated.

Target: Nonstructural protein 3 (Zika virus, UniProt A0A024AXB9)
Assay: Functional biochemical assay to identify treatments for viral infectious disease that targets Zika NS2B-NS3 protease. Utilizing a direct enzyme activity measurement method, reading the fluorescence intensity is used to characterize the relative potency of inhibitors as IC50.
Set-up: species or system PRVABC59

Nonstructural protein 3, sequence (A0A024AXB9 whole entry): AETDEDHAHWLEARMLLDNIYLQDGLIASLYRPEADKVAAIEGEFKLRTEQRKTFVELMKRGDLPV

Point of comparison: `NC[C@H]1CC[C@H](NC(=O)c2cc(Cl)cc3[nH]ncc23)CC1`, IC50 20.1 µM. Against it:
- C[C@@H](NC(=O)c1ccc2[nH]cc(C=O)c2c1)C1=CCN(C)CC1 — higher, > 99.5 µM
- O=C(Nc1ccc2c(c1)CNC2)c1cc(Cl)cc2[nH]c(-c3cnccc3O)nc12 — 51-fold lower, 0.395 µM
- CCn1ccnc(N2CC[C@H](C3CCOCC3)C2)c1=O — higher, > 99.5 µM
- CCn1cc(-c2ccc(S(C)(=O)=O)cc2)nc(N2CC[C@@H](CO)C2)c1=O — higher, > 99.5 µM
- O=C(Nc1cc(-c2cccnc2)ccn1)c1coc(C2CC2)n1 — higher, > 25 µM
- CS(=O)(=O)c1ccc(NC(=O)c2cc(Cl)cc(NC(=O)OCc3ccccc3)c2)cc1 — higher, > 99.5 µM
- O=C(Nc1cc(Cl)cc(C(=O)N2CCC(C(=O)O)CC2)c1)OCc1ccccc1 — higher, > 99.5 µM
- Cc1nccnc1Oc1ccc(S(=O)(=O)Nc2ccc(Cl)cc2C(=O)O)cc1 — higher, > 99.5 µM
- CN1CCN(Cc2cccc(CNC(=O)[C@@H](NC(=O)OCc3ccccc3)c3ccc(OCc4ccccc4)cc3)c2)CC1 — higher, > 99.5 µM
- Cc1cc(N2CCC(NC(=O)c3cccc4c3CC(=O)N4)CC2)[nH]n1 — higher, > 25 µM
- CCc1cccc(NC(=O)[C@]2(Oc3ccc(Br)cc3)CCNC3(CC3)C2)c1 — higher, > 99.5 µM
- O=C(NCc1ccco1)c1csc(Br)c1 — higher, > 99.5 µM
- CCn1cc(-c2ccnc(N(C)C)c2)nc(N2CC[C@@H](CO)C2)c1=O — higher, > 99.5 µM
- CCn1cc(-c2cn(C)nc2C(F)(F)F)nc(N2CC[C@@H](CO)C2)c1=O — higher, > 99.5 µM
- O=C(O)C[C@H]1CCCN1C(=O)c1cc(Cl)cc(NC(=O)OCc2ccccc2)c1 — higher, > 99.5 µM
- Cn1nc(C2CC2)cc1C(=O)Nc1cc(CCCN)ccn1 — higher, > 25 µM
- CN1CCc2ncc(NC(=O)[C@@H](NC(=O)OCc3ccccc3)c3ccc(OCc4ccccc4)cc3)cc2C1 — higher, > 99.5 µM
- CS(=O)(=O)c1ccc(N2CCNCC2)cc1NC(=O)c1cccc2ncccc12 — higher, > 99.5 µM
- CC(=O)N[C@@H](C(=O)Nc1cccc(CN)c1)c1ccc(OCc2ccccc2)cc1 — higher, > 99.5 µM
- NC[C@H]1CC[C@H](CNC(=O)[C@@H](NC(=O)OCc2ccccc2)c2ccc(OCc3ccccc3)cc2)CC1 — 4-fold higher, 80.3 µM
- NCc1cccc(NC(=O)[C@H](NC(=O)OCc2ccccc2)c2cccc(C3=CCCOC3)c2)c1 — 4.6-fold higher, 93.3 µM
- O=C(Nc1ccc2c(c1)CNC2)c1cc(Cl)ccc1SC1CCCC1 — 23-fold lower, 0.857 µM
- COCc1ccccc1Nc1ccc(S(=O)(=O)Nc2ccc(Cl)cc2C(=O)O)cn1 — 4.9-fold higher, 98.8 µM
- CCc1onc(C2CCOCC2)c1C(=O)Nc1cccc(CN)c1 — higher, > 99.5 µM
- N[C@H]1C[C@H](CNC(=O)[C@@H](NC(=O)OCc2ccccc2)c2ccc(OCc3ccccc3)cc2)C1 — higher, > 99.5 µM
- Cc1ccc(CNC(=O)[C@@H](NC(=O)OCc2ccccc2)c2ccc(OCc3ccccc3)cc2)cn1 — higher, > 99.5 µM
- CCc1n[nH]cc1-c1cccc([C@H](NC(=O)OCc2ccccc2)C(=O)Nc2cccc(CN)c2)c1 — higher, > 99.5 µM
- Cc1nc(C2(NC(=O)c3cccc4c3CC(=O)N4)CCC2)no1 — higher, > 25 µM
- C[C@H]1CC2(CN1C(=O)Nc1ccc3c(c1)CNC3)CC(F)(F)C2 — higher, > 25 µM
- CCOc1cccc(-c2ccc(S(=O)(=O)Nc3cc(F)c(Cl)cc3C(=O)O)cc2)c1 — 2.5-fold lower, 8.18 µM
- NCc1ccc(NS(=O)(=O)c2ccc(Oc3ccccc3Cl)cc2)cc1 — higher, > 99.5 µM
- NCc1ccc(CNC(=O)c2cc(Cl)cc(NC(=O)OCc3ccccc3)c2)cc1 — 2.1-fold higher, 42.6 µM
- C=CC[C@H]1NCc2cc(NCc3cc(Cl)cc4[nH]ncc34)ccc21 — higher, > 25 µM
- NCc1cccc(NC(=O)[C@H]2C[C@@H](C(F)(F)F)C[C@@H](C(F)(F)F)C2)c1 — higher, > 99.5 µM
- O=C(O)c1ncc(F)cc1NS(=O)(=O)c1ccc(Oc2ccccc2Cl)cc1 — higher, > 99.5 µM
- NCc1ccc(F)c(NC(=O)c2cc(Cl)cc(NC(=O)OCc3ccccc3)c2)c1 — 4.6-fold lower, 4.35 µM
- CN1CCn2nc(NC(=O)[C@@H](NC(=O)OCc3ccccc3)c3ccc(OCc4ccccc4)cc3)cc2C1 — higher, > 99.5 µM
- NC(=O)C1(N2CCCCC2)CCN(C(=O)C2CCN(c3ccc(C=O)cc3)CC2)CC1 — 2.9-fold higher, 57.5 µM
- NC1(c2cccc(NC(=O)[C@@H](NC(=O)OCc3ccccc3)c3ccc(OCc4ccccc4)cc3)c2)CCC1 — higher, > 99.5 µM
- O=C(O)c1cc(Cl)ccc1NS(=O)(=O)c1ccc(Oc2ccccc2Cl)nc1 — higher, > 99.5 µM
- CCCC[C@H](NC(C)=O)C(=O)N[C@H](C(=O)NCc1ccc(CN)cc1)c1ccc(OCc2ccccc2)cc1 — 3-fold higher, 60.4 µM
- c1nc(C2CCN(Cc3n[nH]c4c3CCC4)CC2)cs1 — higher, > 99.5 µM
- COCc1cc(Cl)cc(S(=O)(=O)Nc2cccc(-c3nnn[nH]3)c2)c1 — higher, > 99.5 µM
- N#C[C@]1(Nc2cccc(-c3nn[nH]n3)c2)C(=O)Nc2ccc(Cl)cc21 — higher, > 99.5 µM
- Cc1c(C(=O)Nc2n[nH]c3c2CNC3)cc(C2CC2)n1C — higher, > 99.5 µM
- NCc1cccc(NC(=O)[C@@H](NC(=O)OCc2ccccc2)C2CCN(Cc3cn[nH]c3)CC2)c1 — higher, > 99.5 µM
- N=C(N)Nc1ccc(OC(=O)Nc2ccccc2)cc1 — higher, > 100 µM
- NCc1cccc(NC(=O)[C@H](NC(=O)c2ccns2)c2ccc(OCc3ccccc3)cc2)c1 — 4.7-fold higher, 95.2 µM
- O=C(Nc1ccc2c(c1)CNC2)c1cc(Cl)cc(C2CC2)c1 — 93-fold lower, 0.216 µM
- O=C(O)Cc1cccc(NC(=O)c2cc(Cl)cc(NC(=O)OCc3ccccc3)c2)c1 — higher, > 99.5 µM
- CNC(=O)[C@H](Nc1cccc(CN)c1)c1cc(Cl)cc(NC(=O)OCc2ccccc2)c1 — 33-fold lower, 0.612 µM
- O=C(Nc1ccc2c[nH]nc2c1)c1cc(Cl)cc2[nH]ncc12 — higher, > 25 µM
- CC(C)Nc1nc2ccc(C(=O)Nc3ccc4cn[nH]c4n3)cc2[nH]1 — higher, > 99.5 µM
- Cc1cc(NC(=O)c2cc(C3CC3)n(C)c2C)ccc1N1CCCC1=O — higher, > 25 µM
- O=C(Nc1cc(Cl)cc(C(=O)Nc2ccc(OC3CNC3)cc2)c1)OCc1ccccc1 — 3.6-fold lower, 5.64 µM
- NCc1cccc(NC(=O)[C@H]2COCC3(CCC3)O2)c1 — higher, > 99.5 µM
- c1ccc([C@H](NCc2c[nH]c3ccccc23)c2cccnc2)cc1 — higher, > 99.5 µM
- CC(C)c1cc(Br)cc(C(=O)Nc2ccc3c(c2)CNC3)c1 — 51-fold lower, 0.393 µM
- N[C@H]1CCOc2ccc(NC(=O)c3cc(Cl)cc(NC(=O)OCc4ccccc4)c3)cc21 — 1.9-fold lower, 10.6 µM
- CC(C)(C)c1cc(Br)cc(C(=O)Nc2ccc3c(c2)CNC3)c1 — 56-fold lower, 0.356 µM
- NCc1cccc([C@@H]2[C@H](C(=O)O)[C@H]2c2cc(N)cc(Cl)c2)c1 — higher, > 99.5 µM
- NCc1cccc(N(C(=O)CNC(=O)OCc2ccccc2)c2ccc(OCc3ccccc3)cc2)c1 — higher, > 99.5 µM
- NCc1cccc(NC(=O)c2cc(NC(=O)OCc3ccccc3)ccc2C(F)(F)F)c1 — higher, > 99.5 µM
- CNC(=O)C(=O)/C=C/c1ccccc1C — higher, > 198 µM
- O=C(O)c1cc(Cl)ccc1NS(=O)(=O)c1ccc(-c2ccccc2Cl)cc1 — within 1.5-fold, 17.8 µM
- NCc1cccc(NC(=O)c2cc(Cl)cc(N3CCCC3=O)c2)c1 — 1.7-fold lower, 11.5 µM
- Cc1noc(C)c1Cc1ccc(C(=O)Nc2cccc(CN)c2)o1 — higher, > 99.5 µM
- O=C(Nc1cc(Cl)cc(/C=C/c2cccc(-n3nn[nH]c3=O)c2)c1)OCc1ccccc1 — higher, > 99.5 µM
- NCCc1cccc(-c2cccc([C@@H](NC(=O)OCc3ccccc3)C(=O)Nc3cccc(CN)c3)c2)c1 — 1.9-fold lower, 10.5 µM
- C[C@@H](C(=O)Nc1cccc(CN)c1)c1ccc(OCc2ccccc2)cc1 — higher, > 99.5 µM
- N#C[C@H](Nc1ccc(-c2nn[nH]n2)cc1)c1cc(Cl)cc(NC(=O)OCc2ccccc2)c1 — within 1.5-fold, 19.3 µM
- N#Cc1cc(Cl)cc(-c2ccc3[nH]c(C(=O)O)cc3c2)c1 — higher, > 99.5 µM
- Cc1c(C(=O)Nc2cccc(CN)c2)cc(C(C)C)n1C — higher, > 99.5 µM
- O=c1ccn(Cc2cc(=O)n3ccccc3n2)c2ccsc12 — higher, > 99.5 µM
- Cc1c(C(=O)Nc2cccc(-c3nnn[nH]3)c2)cnn1-c1ccc(Cl)cc1 — higher, > 99.5 µM
- NCc1cccc(NC(=O)[C@H]2CCCN(C(=O)OCc3ccccc3)C2)c1 — higher, > 99.5 µM
- NCc1cccc([C@H](CCCO)Nc2cc(Cl)cc(NC(=O)OCc3ccccc3)c2)c1 — within 1.5-fold, 27.4 µM
- Cc1[nH]c2ccc(Cl)cc2c1Cc1ccc(-c2nnn[nH]2)cc1 — higher, > 99.5 µM
- CCn1c(=O)c(N2CC[C@H](N3CCCC3=O)C2)nc2ccccc21 — higher, > 99.5 µM
- CC(C)(C)OC(=O)N[C@H](C(=O)Nc1cccc(CN)c1)c1ccc(OCc2ccccc2)cc1 — higher, > 99.5 µM
- O=C(Nc1ccc2[nH]c(=O)[nH]c2c1)c1cc(F)cc2[nH]ncc12 — higher, > 25 µM
- CCNC(=O)Nc1cc(Cl)cc(C(=O)Nc2cccc(-n3nn[nH]c3=O)c2)c1 — higher, > 99.5 µM
- NCc1csc2cc(C(=O)Nc3cc([C@H]4CCOC4)ccn3)ccc12 — higher, > 25 µM
- CC(C)Oc1ccccc1C(=O)N[C@H](C(=O)Nc1cccc(CN)c1)c1ccc(OCc2ccccc2)cc1 — 1.7-fold higher, 34.4 µM
- O=C(O)CCCc1ccc(NC(=O)c2cc(Cl)cc(NC(=O)OCc3ccccc3)c2)cc1 — higher, > 99.5 µM
- NCc1cccc(NC(=O)[C@@H](NC(=O)OCc2ccccc2)c2ccc(F)c(F)c2)c1 — higher, > 99.5 µM
- CO[C@H]1C[C@H](n2cc3c(C(=O)Nc4ccc5c(c4)CNC5)cc(Cl)cc3n2)C1 — 92-fold lower, 0.219 µM
- CCOc1cccc(N2CC[C@@H](CO)C2)c1 — higher, > 99.5 µM
- O=C(Nc1ccc2c(c1)CNC2)c1cnnc2ccccc12 — within 1.5-fold, 19.6 µM
- CCc1ncc(Cl)cc1C(=O)Nc1ccc2c(c1)CNC2 — 13-fold lower, 1.6 µM
- CC[C@H](Cc1nnn[nH]1)c1ccc(NC(=O)c2cc(Cl)cc3c2CCC3)cc1 — higher, > 99.5 µM
- CCOc1cccc(-c2ccc(S(=O)(=O)Nc3cc4c(cc3C(=O)O)CCC4)cc2)c1 — within 1.5-fold, 14.2 µM
- CN(c1ncnc(-c2ccsc2C=O)n1)C1CCNCC1 — 4.9-fold higher, 98.4 µM
- O=C(Nc1cc(Cl)cc(C(=O)Nc2ccc3c(c2)OCCNC3)c1)OCc1ccccc1 — within 1.5-fold, 15.2 µM

In the case of `O=C(Nc1ccc2c(c1)CNC2)c1cc(Cl)cc2nn(-c3ccccc3)nc12`, the IC50 is reported as 0.372 µM and 3.47 µM.
For `O=C(NCC(F)F)[C@H](Nc1ccc2c(c1)CNC2)c1cc(Cl)cc2c1CCC2`, the IC50 was 0.051 µM and 0.034 µM.
`O=C(Nc1ccc2c(c1)CNC2)c1cc(F)cc(-c2ccc3c(=O)[nH]ncc3c2)c1` was tested, and the IC50 was 0.456 µM and 0.295 µM.
For `N#Cc1ccc(-c2nc3c(C(=O)Nc4ccc5c(c4)CNC5)cc(F)cc3[nH]2)cc1`, the IC50 was 0.014 µM and 0.013 µM and 0.01 µM.
For `O=C(Nc1ccc2c(c1)CNC2)c1cc(F)cc2nn(-c3ccccn3)nc12`, the IC50 was 0.111 µM and 0.13 µM.
With `O=C(NC1CCOCC1)[C@H](Nc1ccc2c(c1)CNC2)c1cc(Cl)cc2[nH]ncc12` the IC50 was 0.03 µM and 0.021 µM.
`O=C(NCC(F)F)[C@H](Nc1ccc2c(c1)CNC2)c1cc(Br)cc2[nH]ccc12` was tested, and the IC50 was 0.077 µM and 0.044 µM.
